Read-outs that look alike come from different tables or passages of the source.
How the values were obtained:
herpesvirus 5 = herpesvirus 5 plaque reduction assay in MRC-5 cell monolayers; format: cell-based, human herpesvirus 5 (HCMV)
Experimental: Compound 1 was isolated from a unique Taiwanese plant (Taiwania cryptomerioides). See, e.g., Chang et al. (2000) Phytochemistry 55: 227. Antiviral drug ganciclovir (i.e., […], GCV) was purchased from Sigma. Both compounds were solubilized in 100% dimethyl sulfoxide (DMSO) at a concentration of 10 mM and stored at −20° C. The compounds were added to cultures such that the resulting concentrations of DMSO never exceed 0.05%, by volume. To reserve the stability of both compounds, Compound 1 and GCV were never stored in cell culture medium and made fresh for each experiment.
Human cell lines, HEL299 (ATCC CCL-137), MRC-5 (ATCC CCL-171), H1299 (CRL-5803), and ARPE19 (CRL-2302) were grown in respective culture media as indicated by the ATCC. All cell lines were screened periodically for mycoplasma contamination. Two HCMV lab strains, AD169 (VR-538) and the Town strain RC256 (the ATCC VR-2356) were purchased from ATCC. All stocks of HCMV were prepared as described in Spaete & Mocarski (1985) J Virol 54(3): 817-24.
The activities of Compound 1 and GCV against herpesvirus 5 were determined by a plaque reduction assay. All herpesvirus 5 plaque reduction assays were performed with monolayer cultures of MRC-5 cells in 6-well cluster dishes (Costar, Cambridge, Mass.). Briefly, one day before the experiment, MRC-5 cells were seeded into 6-well plates at a final concentration of 5×10^6 cells/well. On the day of virus inoculation, cells were treated with each test compound at a desired concentration for one hour before virus inoculation. The serially-diluted virus inoculums containing 10^5 to 10^0 PFU of herpesvirus […] were then added into cell cultures and incubated for additional 2 hours at 37° C. After the incubation, the cells were extensively washed with phosphate buffered saline (PBS) three times and then overlayed with the overlay medium containing 0.3% agar in the absence or presence of the test compounds. The cell cultures were maintained in the 37° C. incubator for two weeks. After removing the overlay agar, the cells were stained with crystal violet.

[1] = cytotoxic effect by MTS assay; format: cell-based; conditions: human, read-out: LC50 value (i.e., half lethal concentration)
Experimental: The cytotoxic effect was also determined using the MTS (3-(4,5-dimethylthiazol-2-yl)-5-(3-carboxymethoxyphenyl)-2-(4-sulfophenyl)-2H-tetrazolium, inner salt) assay method described in Goodwin et al. (1995, J. Immunol. Methods. 179: 95).

[2] = system: herpesvirus 5 ie and pp150 transcripts; test: reverse transcription (RT) assay of ie and pp150 transcripts in infected HEL299 cells; format: cell-based, herpesvirus 5 lab strain AD169; conditions: AD169, MOI 1.0, total RNA day 0-7 post-infection
Experimental: To determine whether the absence of IE2 protein expression was due to Compound 1-induced abrogation at the transcriptional level, a reverse transcription (RT) assay was performed to measure the IE2 mRNA in the absence or presence of Compound 1. Basically, HEL299 cells were infected with herpesvirus 5 lab strain AD169 at a MOI of 1.0. Total RNAs were then extracted, collected after 2 hours of virus absorption on day 0, 1, 3, 5, and 7 post-infection. The expression of immediate early (ie) and late (pp150) gene products were determined by amplifying segments spanning at a common region shared by ie genes 1 and 2, and the 5′ end of pp150. As an internal control, a segment spanning β-actin was also amplified. […] The expression of pp150 transcripts was also detected after day 3.

[3] = system: herpesvirus 5 immediate early protein 2 (IE2 protein); test: expression of herpesvirus 5 IE2 and late proteins in infected HEL299 cells; format: cell-based; conditions: AD169, MOI 1.0, lysates day 0-7 post-infection
Experimental: Cell-free virus stock, whose titer had been determined by a plaque reduction assay, was used. One day before the experiment, herpesvirus 5-permissive cells were seeded into 6-well plates at a final concentration of 5×10^6 cells/well. On the day of viral infection, the cells were incubated with or without a test compound (Compound 1 or GCV) for one hour. Subsequently, the cells were washed with PBS twice and serum-free medium were added during virus inoculation. The virus inocula were approximately at a multiplicity of infection (MOI) of 0.1 to 1 PFU/cell depending on which cell line was used. After two hours of incubation with viruses, cells were washed with PBS to remove unbound viruses. The cells were maintained at fresh media with or without test compounds at 37° C. with 5% CO2 incubator. The cell lysate samples were collected on day 0, 1, 3, 5, and 7 after virus infection.
More specifically, HEL299 cells were infected with herpesvirus 5 lab strain AD169 at an MOI of 1.0. Cell lysates were then collected after 2 hours of virus absorption on day 0, 1, 3, 5, and 7 post-infection. IE2 protein in virally infected cells was expressed rapidly on day 1 and increased dramatically on day 5. The expression of herpesvirus 5 late proteins was also detected on days 5 and 7 post-infection.

SMILES	IC50 (herpesvirus 5; Human betaherpesvirus 5, MRC5, plaque reduction, MRC-5 cells, herpesvirus 5, read-out: IC50 value (i.e., 50% infectious concentration)) [nM]	IC50 (herpesvirus 5; Human betaherpesvirus 5, MRC5, read-out: IC50 value (i.e., 50% infectious concentration)) [nM]	potency relative to GCV (herpesvirus 5; IC50 compared with that of GCV)	SI (selectivity index=LC50/IC50) (herpesvirus 5; LC50 (MTS)/IC50 (plaque reduction))	herpesvirus 5 growth in the presence of compound (herpesvirus 5; plaque reduction, MRC-5 cells)	CC50 [1] [µM]	detection of viral RNA (ie and pp150 transcripts) [2]	detection of IE2 and late viral proteins in infected cells [3]
Nc1nc2c(ncn2COC(CO)CO)c(=O)[nH]1 [GCV, 2-amino-1,9-dihydro-9-[(2-hydroxy-1-(hydroxymethyl)ethoxy)methyl]-6H-purin-6-one, reference compound]	1000							
O=C1OCc2c1cc1ccc3c(c1c2-c1ccc2c(c1)OCO2)OCO3 [Compound 1, 10-benzo[1,3]dioxol-5-yl-9H-furo[3′,4′:6,7]naphtho[1,2-d][1,3]dioxol-7-one]		< 100	ten-fold more potent	> 160	inhibited	> 16	none of these viral RNA was detected	none of these viral proteins was detected
